Fold change (FC), EC200 and Activity data for 17 molecules are collected here from ChEMBL document CHEMBL5154893, “Design, Synthesis, and Biological Evaluation of Potent 20S Proteasome Activators for the Potential Treatment of α-Synucleinopathies” (J Med Chem, 2022).

Data set [1] concerns the target T1, 20S proteasome (Homo sapiens) (UniProt P49721+P20618+P28074+P28062+P28065+P28072+P25786+P25787+P25788+P25789+P28066+P60900+O14818+Q8TAA3+P40306+A5LHX3+P49720+P28070+Q99436). Put plainly: Activation of human 20S proteosome assessed as maximum fold change in substrate degradation using Suc-LLVY-AMC/Z-LLE-AMC/Boc-LLR-AMC as flurogenic substrate preincubated for 15 mins followed by substrate addition and measured after 1 hr by spectrometric analysis relative to control. The class given is protein-complex assay. The settings on record: filed as activator.

The target of data set [2] is T1, 20S proteasome (Homo sapiens). Put plainly: Activation of human 20S proteosome assessed as substrate degradation using Suc-LLVY-AMC/Z-LLE-AMC/Boc-LLR-AMC as flurogenic substrate preincubated for 15 mins followed by substrate addition and measured after 1 hr by spectrometric analysis. Format: protein-complex assay.
Data set [3] has the same target. Put plainly: Activation of human 20S proteosome at caspase-like site assessed as substrate degradation using Z-LLE-AMC as flurogenic substrate preincubated for 15 mins followed by substrate addition and measured after 1 hr by spectrometric analysis. The class given is protein-complex assay.
Data set [4] has the same target. Put plainly: Activation of human 20S proteosome at trypsin-like site assessed as substrate degradation using Boc-LLR-AMC as flurogenic substrate preincubated for 15 mins followed by substrate addition and measured after 1 hr by spectrometric analysis. Format: protein-complex assay.
The target is the same in data set [5]. Put plainly: Activation of human 20S proteosome at trypsin-like site assessed as maximum fold change in substrate degradation using Boc-LLR-AMC as flurogenic substrate preincubated for 15 mins followed by substrate addition and measured after 1 hr by spectrometric analysis relative to control. The class given is protein-complex assay. The settings on record: filed as activator.

The target is the same in data set [6]. Put plainly: Activation of human 20S proteosome at chymotrypsin like site assessed as maximum fold change in substrate degradation using Suc-LLVY-AMC as flurogenic substrate preincubated for 15 mins followed by substrate addition and measured after 1 hr by spectrometric analysis relative to control. The class given is protein-complex assay. The settings on record: filed as activator.

For data set [7] the target is unchanged. Nature of the data set: Activation of human 20S proteosome at chymotrypsin like site assessed as substrate degradation using Suc-LLVY-AMC as flurogenic substrate preincubated for 15 mins followed by substrate addition and measured after 1 hr by spectrometric analysis. The class given is protein-complex assay.
Data set [8] has the same target. Put plainly: Activation of human 20S proteosome at caspase-like site assessed as maximum fold change in substrate degradation using Z-LLE-AMC as flurogenic substrate preincubated for 15 mins followed by substrate addition and measured after 1 hr by spectrometric analysis relative to control. The note with it: filed as activator. Format: protein-complex assay.
For data set [9], the species on record is Homo sapiens. Put plainly: Activation of human 26S proteosome assessed as increase in fold change in proteolytic degradation using SUC-ANW-AMC/Z-LLE-AMC/Boc-LRRAMC as flurogenic substrate at 80 uM preincubated for 15 mins followed by substrate addition and measured after 1 hr by spectrometric analysis relative to control. The note with it: filed as activator.

Data set [10] is filed under the species Homo sapiens. Put plainly: Activation of human 20S-proteosome mediated full length alpha-synuclein degradation by measuring remaining protein at 15 uM incubated for 45 mins by Western blot analysis relative to control. A general note: A western blot detects proteins with antibodies after separation by electrophoresis.
Data set [11] relates to HEK293T. Put plainly: Activation of 20S proteasome mediated full length alpha-synuclein A53T mutant degradation expressed in HEK293T cells assessed as residual protein at 15 uM incubated for 24 hrs by Western blot analysis relative to control. The class given is cell-based. The settings on record: Homo sapiens, filed as activator.
The species entered for data set [12] is Homo sapiens. Nature of the data set: Activation of human 20S-proteosome mediated degradation of full length wild type alpha-synuclein at 10 uM incubated for 45 mins by Western blot analysis relative to control.
The test system of data set [13] is HEK-293T. Nature of the data set: Cytotoxicity in human HEK293T cells assessed as reduction in cell viability at 15 uM incubated for 16 hrs by CellTiter-glo assay. Format: toxicity, cell-based. In general terms: In ATP-based viability assays light output follows the ATP content of the culture.
Data set [14] is filed under the species Homo sapiens. Put plainly: Activation of human 20S-proteosome mediated full length alpha-synuclein degradation by measuring remaining protein at 2.5 uM incubated for 45 mins by Western blot analysis relative to control.
The species entered for data set [15] is Homo sapiens. Nature of the data set: Activation of human 20S-proteosome mediated full length alpha-synuclein degradation by measuring remaining protein at 5 uM incubated for 45 mins by Western blot analysis relative to control.
The species entered for data set [16] is Homo sapiens. Put plainly: Activation of human 20S-proteosome mediated full length alpha-synuclein degradation by measuring remaining protein at 10 uM incubated for 45 mins by Western blot analysis relative to control.
In data set [17] the test system is HEK293T. Put plainly: Activation of 20S proteasome mediated full length alpha-synuclein A53T mutant degradation expressed in HEK293T cells assessed as residual protein at 5 uM incubated for 24 hrs by Western blot analysis relative to control. The settings on record: Homo sapiens. The class given is cell-based.
The species entered for data set [18] is Homo sapiens. Nature of the data set: Activation of human 20S-proteosome mediated degradation of full length wild type alpha-synuclein at 15 uM incubated for 45 mins by Western blot analysis relative to control. The settings on record: filed as activator.

For `O=[N+]([O-])c1cccc(CN2c3ccccc3Sc3ccc(Cl)cc32)c1`, the fold change (FC) in data set [1] came to 8; in [5] it was 8; in data set [6], 9; in data set [8], 12. In addition, the EC200 in data set [2] (filed as activator) worked out at 1.1 µM; in data set [3] (filed as activator) it was 1.2 µM; in [4] (filed as activator), 1.6 µM; in data set [7] (filed as activator) it was 1.1 µM.

With `Oc1ccc(CN2c3ccccc3Sc3ccc(Cl)cc32)cc1`, the EC200 in [2], in [3], in data set [4] and in data set [7] was greater than 80 µM each time.

On to `COC(=O)c1cccc(CN2c3ccccc3Sc3ccc(Cl)cc32)c1`, for which the fold change (FC) amounted to 6 in [1], 8 in [5], 6 in [6] and 4 in data set [8]. Further, the EC200 in data set [2] (filed as activator) amounted to 2.4 µM; in [3] (filed as activator) it was 9.7 µM; in [4] (filed as activator), 1.9 µM; in data set [7] (filed as activator), 2.4 µM.

`COc1cccc(CN2c3ccccc3Sc3ccc(Cl)cc32)c1`: the fold change (FC) in data set [1] is 4; in [5], 2; in data set [8], 4. Also, the EC200 is 1.5 µM in data set [2] (filed as activator), 1.3 µM in data set [3] (filed as activator), 5.4 µM in data set [4] (filed as activator) and greater than 80 µM in data set [7].

For the molecule `CC(=O)Oc1ccc(CN2c3ccccc3Sc3ccc(Cl)cc32)cc1`, the EC200 in data set [2], in [3], in [4] and in data set [7] was greater than 80 µM throughout.

For the molecule `N#CCCCCN1c2ccccc2Sc2ccc(Cl)cc21`, the EC200 in data set [2], in [3], in data set [4] and in data set [7] was greater than 80 µM each time.

Consider `CC(C)(C)OC(=O)c1ccc(CN2c3ccccc3Sc3ccc(Cl)cc32)cc1`, for which the EC200 in [2], in data set [3], in data set [4] and in data set [7] was greater than 80 µM throughout.

Consider `CN(C(=O)CCN1c2ccccc2Sc2ccc(Cl)cc21)c1ccc(F)cc1`, for which the EC200 in data set [2], in data set [3], in [4] and in data set [7] was greater than 80 µM each time.

As for `O=C(CCN1c2ccccc2Sc2ccc(Cl)cc21)Nc1ccccc1`, the fold change (FC) in [1] stood at 2.5; in data set [5] it was 2. Besides, the EC200 is 40 µM in data set [2] (filed as activator), greater than 80 µM in data set [3], 80 µM in data set [4] (filed as activator) and greater than 80 µM in [7].

On to `COC(=O)c1ccc(CN2c3ccccc3Sc3ccc(Cl)cc32)cc1`, for which the fold change (FC) in [1] worked out at 9; in data set [9], 2; in data set [5] it was 15; in data set [6], 1.2; in data set [8] it was 7. In addition, the figures for the Activity in data set [10] (filed as activator) and in [11] were 33% and 25%, respectively. Also, the EC200 in [2] (filed as activator) was determined as 1.4 µM; in [3] (filed as activator) it was 2.7 µM; in data set [4] (filed as activator), 2.6 µM; in [7] (filed as activator), 1.9 µM.

Consider `O=C(CCN1c2ccccc2Sc2ccc(Cl)cc21)N(c1ccc(F)cc1)c1ccc(F)cc1`, for which the Activity in data set [12] was 73%; in data set [13] it was greater than 80%; in [10], 19%; in data set [14], 69%; in [15], 51%; in data set [16], 27%. Besides, the Activity in data set [17] was 67%. Moreover, the fold change (FC) in data set [1] is 11; in data set [5] it was 6; in data set [6] it was 9.4; in data set [8] it was 9.4. In addition, the EC200 in data set [2] (filed as activator) stood at 0.4 µM; in data set [3] (filed as activator), 1.8 µM; in data set [4] (filed as activator) it was 0.3 µM; in data set [7] (filed as activator) it was 0.7 µM.

For `Clc1ccc2c(c1)N(Cc1ccccc1)c1ccccc1S2`, the fold change (FC) in data set [1] was 2; in data set [5] it was 2; in data set [6], 3. For the same molecule, the EC200 was 1.5 µM in data set [2] (filed as activator), greater than 80 µM in [3], 3.1 µM in data set [4] (filed as activator) and 2.8 µM in data set [7] (filed as activator).

Turning to `NC(=O)CCCCN1c2ccccc2Sc2ccc(Cl)cc21`, the EC200 in data set [2], in data set [3], in data set [4] and in [7] was greater than 80 µM each time.

Consider `CN(C)CCCN1c2ccccc2Sc2ccc(Cl)cc21`, for which the fold change (FC) in data set [1] was 4; in [9] it was 2; in [6] it was 8. Besides, the Activity in [10] (filed as activator) is 34%; in data set [18], 80%. The EC200 in [2] (filed as activator) is 13.5 µM; in data set [3], greater than 80 µM; in [4], greater than 80 µM; in data set [7] (filed as activator), 7 µM.

Consider `Nc1cccc(CN2c3ccccc3Sc3ccc(Cl)cc32)c1`, for which the fold change (FC) in [1] is 8; in data set [5], 10; in data set [6] it was 9; in data set [8], 10. The EC200 in data set [2] (filed as activator) came out at 3.6 µM; in data set [3] (filed as activator), 3.8 µM; in [4] (filed as activator), 9.2 µM; in [7] (filed as activator) it was 6.5 µM.

`CCOC(=O)[C@]1(c2ccccc2)N=C(c2ccc(OC)cc2)N(Cc2ccccc2)[C@@H]1c1ccc(NCc2ccccc2)cc1` yielded an Activity in [10] of 22%.

`CN(C)C(=O)CCN1c2ccccc2Sc2ccc(Cl)cc21`: the EC200 in data set [2], in [3], in data set [4] and in data set [7] was greater than 80 µM each time.
